Measured values published in patent US20100041892A1, “Therapeutic agent for diabetes” (priority 2005, published 2010).
Where two headings read alike, the source gives them in different places.

Columns and labels:
PPARγ-RXRα heterodimer = molecular target: T1, PPARγ-RXRα heterodimer (Homo sapiens, UniProt P37231); assay: PPARγ-RXRα heterodimer ligand activity (luciferase reporter, PPARγ:RXRα:4ERPP/CHO-K1 cells); format: cell-based; details: concentration showing 50% of the maximum luciferase induction rate; CHO-K1 reporter cells, one day incubation
T1 construct: expressed in transfected cells; host or cells: CHO-K1 (PPARγ:RXRα:4ERPP/CHO-K1)
T1 sequence (P37231 1-477 isoform P37231-2): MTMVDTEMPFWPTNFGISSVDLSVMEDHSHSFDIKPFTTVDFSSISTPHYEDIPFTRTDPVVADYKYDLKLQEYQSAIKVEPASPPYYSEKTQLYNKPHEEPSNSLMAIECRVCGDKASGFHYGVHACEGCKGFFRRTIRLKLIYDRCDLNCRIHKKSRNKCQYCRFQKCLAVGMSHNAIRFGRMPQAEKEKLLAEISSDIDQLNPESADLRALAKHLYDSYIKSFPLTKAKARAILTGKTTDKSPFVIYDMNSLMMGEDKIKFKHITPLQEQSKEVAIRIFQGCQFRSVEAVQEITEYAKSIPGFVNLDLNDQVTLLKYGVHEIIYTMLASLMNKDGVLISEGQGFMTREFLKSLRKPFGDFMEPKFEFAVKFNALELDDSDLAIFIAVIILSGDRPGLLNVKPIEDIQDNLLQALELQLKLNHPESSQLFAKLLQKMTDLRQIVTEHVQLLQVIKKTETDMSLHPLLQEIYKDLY
T1 sequence (P19793 1-462 partner): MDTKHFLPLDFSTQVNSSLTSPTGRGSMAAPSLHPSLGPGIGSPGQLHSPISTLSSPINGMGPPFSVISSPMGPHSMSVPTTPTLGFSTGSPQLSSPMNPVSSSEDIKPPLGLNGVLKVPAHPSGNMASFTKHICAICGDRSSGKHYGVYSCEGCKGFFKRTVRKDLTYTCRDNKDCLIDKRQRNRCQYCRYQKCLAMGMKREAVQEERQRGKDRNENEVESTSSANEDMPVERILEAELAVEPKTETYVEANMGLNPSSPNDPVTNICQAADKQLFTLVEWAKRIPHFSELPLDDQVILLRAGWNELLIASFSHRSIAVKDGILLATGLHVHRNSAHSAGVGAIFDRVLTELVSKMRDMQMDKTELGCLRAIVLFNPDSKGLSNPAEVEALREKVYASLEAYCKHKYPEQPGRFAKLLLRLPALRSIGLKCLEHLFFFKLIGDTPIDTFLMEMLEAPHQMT
Description: The PPARγ:RXRα:4ERPP/CHO-K1 cells described in WO03/099793 were cultured in a Ham F12 medium [manufactured by Life Technologies, Inc., US] containing 10% calf fetal serum [manufactured by Life Technologies, Inc., US], sown in a 96-well white plate (manufactured by Corning Coster Corporation, US] at 1×10^4 cells/well, and incubated overnight in a carbon dioxide gas incubator at 37° C.
Then, the medium was removed from the 96 well white plate, 45 μl of Ham F12-medium containing 0.1% fatty acid-free bovine serum albumin (BSA) and a test compound (5 μl) were added, and the cells were incubated for one day in a carbon dioxide gas incubator at 37° C. The medium was removed, 20 μl of PicaGene 7.5 (manufactured by Wako Pure Chemical Industries, Ltd.) 2-fold diluted with HBSS (HANKS' BALANCED SALT SOLUTION) [manufactured by BIO WHITTAKER, US] was added. After stirring, the luciferase activity was determined using the 1420 ARVO Multilabel Counter [manufactured by PerkinElmer, US].
The induction rate was calculated from the luciferase activity of each test compound based on the luciferase activity of the test compound non-administration group as 1. The test compound concentration and the induction rate were analyzed by PRISM [manufactured by GraphPad Software, Inc., US] to calculate EC50 value (compound concentration showing 50% of the maximum value of induction rate) of the test compound.

KKAy mice = assay: Blood glucose and blood lipid (triglyceride) lowering action in mice; format: in vivo; details: Mus musculus, 4TO7, po, 4 to 7 days; for response vs control in vivo at 0.01 %: 0.01% in powder diet; for response vs control in vivo at 0.03 %: 0.03% in powder diet
From the text: The test compound was mixed with a powder diet (CE-2, CLEA JAPAN, INC.) at a proportion of 0.01% (0.03% for the compounds of Examples 1, 2, 12, 81, 94, 96, 129 and 143, and 0.005% for the compounds of Examples 28, 30 and 37) and freely given to KKAy mice (9 to 14-week-old, 5 mice per group) which are obesity non-insulin-dependent diabetes (type-2 diabetes) models, for 4 to 7 days. During this period, water was freely given. The blood was drawn from the orbital venous plexus. Glucose and triglyceride in the plasma separated from the blood were quantitated using L Type Wako Glu2 (Wako Pure Chemical Industries, Ltd.) and L Type Wako TG·H (Wako Pure Chemical Industries, Ltd.), respectively, according to an enzyme method.

[1] = plasma glucose relative to non-administration group = 100%, read-out: hypoglycemic action (%)
[2] = plasma triglyceride relative to non-administration group = 100%, read-out: hypolipidemic action (%)

Row | EC50 (PPARγ-RXRα heterodimer) [nM] | melting point [°C] | SMILES | response vs control in vivo at 0.01 % (KKAy mice; [1]) [%] | response vs control in vivo at 0.01 % (KKAy mice; [2]) [%] | response vs control in vivo at 0.03 % (KKAy mice; [1]) [%] | response vs control in vivo at 0.03 % (KKAy mice; [2]) [%]
1 | 4.6 | 155.5 to 157.5 | CC(C)CCS(=O)(=O)NC(=O)/C=C/c1cc(OCC2CC2)nn1Cc1ccc(C(F)(F)F)cc1Cl [Example 26, (2E)-3-[1-[2-chloro-4-(trifluoromethyl)benzyl]-3-(cyclopropylmethoxy)-1H-pyrazol-5-yl]-N-[(3-methylbutyl)sulfonyl]acrylamide] | 50 | 62 |  | 
2 | 7.2 | 148 to 151 | CCCCCS(=O)(=O)NC(=O)/C=C/c1cc(OCC2CC2)nn1Cc1ccc(C(F)(F)F)cc1Cl [Example 151, (2E)-3-[1-[2-chloro-4-(trifluoromethyl)benzyl]-3-(cyclopropylmethoxy)-1H-pyrazol-5-yl]-N-(pentylsulfonyl)acrylamide] | 59 | 73 |  | 
3 | 3.8 | 104.5 to 105.6 | CCCCCS(=O)(=O)NC(=O)/C(=C/c1ccc(OCCOC)cc1Oc1ncc(C(F)(F)F)cc1Cl)CC [Example 183, (2E)-2-[2-{[3-chloro-5-(trifluoromethyl)pyridin-2-yl]oxy}-4-(2-methoxyethoxy)benzylidene]-N-(pentylsulfonyl)butanamide] | 48 | 44 |  | 
4 | 4.4 | 116 to 118 | CCCCCS(=O)(=O)NC(=O)/C=C/c1ccc(OCCC2OCCO2)cc1Oc1ncc(C(F)(F)F)cc1Cl [Example 196, (2E)-3-[2-{[3-chloro-5-(trifluoromethyl)pyridin-2-yl]oxy}-4-[2-(1,3-dioxolan-2-yl)ethoxy]phenyl)-N-(pentylsulfonyl)acrylamide] | 54 | 79 |  | 
5 | 28 | 80.5 to 82.5 | CCCCCS(=O)(=O)NC(=O)/C=C/c1ccc(Oc2ncccn2)cc1Oc1ncc(C(F)(F)F)cc1Cl [Example 197, (2E)-3-[2-{[3-chloro-5-(trifluoromethyl)pyridin-2-yl]oxy}-4-(pyrimidin-2-yloxy)phenyl]-N-(pentylsulfonyl)acrylamide] | 58 | 87 |  | 
6 | 6.7 |  | CCCCCS(=O)(=O)NC(=O)C(Cc1ccc(OCCOC)cc1Oc1ncc(C(F)(F)F)cc1Cl)OC (stereo not shown) [Example 210, 3-[2-{[3-chloro-5-(trifluoromethyl)pyridin-2-yl]oxy}-4-(2-methoxyethoxy)phenyl]-2-methoxy-N-(pentylsulfonyl)propanamide] | 58 | 69 |  | 
7 | 5.2 |  | CCCCCS(=O)(=O)NC(=O)/C(C)=C/c1ccc(OCCOC)cc1Oc1ncc(C(F)(F)F)cc1Cl [Example 211, (2E)-3-[2-{[3-chloro-5-(trifluoromethyl)pyridin-2-yl]oxy}-4-(2-methoxyethoxy)phenyl]-2-methyl-N-(pentylsulfonyl)acrylamide] | 49 | 46 |  | 
8 | 1.1 |  | CCCCCNS(=O)(=O)NC(=O)CCc1ccc(OCCOC)cc1Oc1ncc(C(F)(F)F)cc1Cl [Example 214, 3-[2-{[3-chloro-5-(trifluoromethyl)pyridin-2-yl]oxy}-4-(2-methoxyethoxy)phenyl]-N-[(pentylamino)sulfonyl]propanamide] | 56 | 65 |  | 
9 | 7.2 |  | CCCCCS(=O)(=O)NC(=O)/C=C/c1ccc(OCC(C)(C)O)cc1Oc1ncc(C(F)(F)F)cc1Cl [Example 250, (2E)-3-[2-{[3-chloro-5-(trifluoromethyl)pyridin-2-yl]oxy}-4-(2-hydroxy-2-methylpropoxy)phenyl]-N-(pentylsulfonyl)acrylamide] | 78 | 121 |  | 
10 | 3.1 |  | CCCCCS(=O)(=O)NC(=O)C(C)(C)Cc1ccc(OCCOC)cc1Oc1ncc(C(F)(F)F)cc1Cl [Example 252, 3-[2-{[3-chloro-5-(trifluoromethyl)pyridin-2-yl]oxy}-4-(2-methoxyethoxy)phenyl]-2,2-dimethyl-N-(pentylsulfonyl)propanamide] | 46 | 20 |  | 
11 | 6.2 |  | CCCCCS(=O)(=O)NC(=O)/C=C/c1ccc(OCCOC2CC2)cc1Oc1ncc(C(F)(F)F)cc1Cl [Example 424, (2E)-3-{2-{[3-chloro-5-(trifluoromethyl)pyridin-2-yl]oxy}-4-[2-(cyclopropyloxy)ethoxy]phenyl}-N-(pentylsulfonyl)acrylamide] | 70 | 18 |  | 
12 | 1.8 |  | CC(C)OCCNS(=O)(=O)NC(=O)OCCCc1ccc(OCCO)cc1Oc1ncc(C(F)(F)F)cc1Cl [Example 439, 3-[2-{[3-chloro-5-(trifluoromethyl)pyridin-2-yl]oxy}-4-(2-hydroxyethoxy)phenyl]propyl {[(2-isopropoxyethyl)amino]sulfonyl}carbamate] | 49 | 34 |  | 
13 | 3.4 |  | CC(C)Oc1ccc(CCCOC(=O)NS(=O)(=O)NCCc2ccccn2)c(Oc2ncc(C(F)(F)F)cc2Cl)c1 [Example 444, 3-(2-{[3-chloro-5-(trifluoromethyl)pyridin-2-yl]oxy}-47 isopropoxyphenyl)propyl {[(2-pyridin-2-ylethyl)amino]sulfonyl}carbamate] | 55 | 52 |  | 

Row | SMILES | EC50 (PPARγ-RXRα heterodimer) [nM] | melting point [°C] | response vs control in vivo at 0.01 % (KKAy mice; [1]) [%] | response vs control in vivo at 0.01 % (KKAy mice; [2]) [%] | response vs control in vivo at 0.03 % (KKAy mice; [1]) [%] | response vs control in vivo at 0.03 % (KKAy mice; [2]) [%]
14 | CCCCCS(=O)(=O)NC(=O)CCc1cc(OCCCC)nn1Cc1ccc(Cl)cc1Cl [Example 97, 3-[3-butoxy-1-(2,4-dichlorobenzyl)-1H-pyrazol-5-yl]-N-(pentylsulfonyl)propanamide] | 7.5 | 104 to 105 | 58 | 64 |  | 
15 | CCCCOC(=O)NS(=O)(=O)CCc1cc(OCCCC)nn1Cc1ccc(Cl)cc1Cl [Example 129, butyl ({2-[3-butoxy-1-(2,4-dichlorobenzyl)-1H-pyrazol-5-yl]ethyl}sulfonyl)carbamate] | 10 | 108 to 111 |  |  | 45 | 76
16 | CCCCCS(=O)(=O)NC(=O)/C=C/c1ccc(OCCO)cc1Oc1ncc(C(F)(F)F)cc1Cl [Example 218, (2E)-3-[2-{[3-chloro-5-(trifluoromethyl)pyridin-2-yl]oxy}-4-(2-hydroxyethoxy)phenyl]-N-(pentylsulfonyl)acrylamide monohydrate] | 80 |  | 81 | 129 |  | 
